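Five compound concentrations were applied to cells in 96-well plates for 48 hours; endpoints were derived by simple linear interpolation of the resulting dose-response curve. The concentration for 50% growth inhibition is given as GI50.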 Activity calls are given as the source filed them. Rule as the data show it: active = GI50 up to about 1.1 µM and inactive = higher.
How the values were obtained:
Experiment in all cases: NCI anticancer screen, dose series, 48 h
HCC 2998 = test system: HCC 2998
M19-MEL = test system: M19-MEL
EKVX = test system: EKVX
OVCAR-4 = test system: OVCAR-4
M14 = test system: M14
HCT-116 = test system: HCT-116
NCI-H226 = test system: NCI-H226
TK-10 = test system: TK-10
SF-539 = test system: SF-539
HOP-62 = test system: HOP-62
SW-620 = test system: SW-620
RPMI-8226 = test system: RPMI-8226
NCI-H522 = test system: NCI-H522
SNB-19 = test system: SNB-19
HT-29 = test system: HT-29
DMS-273 = test system: DMS-273
ACHN = test system: ACHN
K562 = test system: K562
UACC-257 = test system: UACC-257
A498 = test system: A498
MOLT-4 = test system: MOLT-4
SK-MEL-2 = test system: SK-MEL-2
OVCAR-3 = test system: OVCAR-3
SK-OV-3 = test system: SK-OV-3
SNB-75 = test system: SNB-75
KM12 = test system: KM12
NCI-H23 = test system: NCI-H23
UACC-62 = test system: UACC-62
SNB-78 = test system: SNB-78
A549 = test system: A549
HOP-18 = test system: HOP-18
CCRF-CEM = test system: CCRF-CEM
SK-MEL-28 = test system: SK-MEL-28
SK-MEL-5 = test system: SK-MEL-5
SN12C = test system: SN12C
LOX IMVI = test system: LOX IMVI
RXF 393 = test system: RXF 393
IGROV-1 = test system: IGROV-1
LXFL 529 = test system: LXFL 529
OVCAR-5 = test system: OVCAR-5
COLO 205 = test system: COLO 205
HL-60 = test system: HL-60
DMS-114 = test system: DMS-114
HOP-92 = test system: HOP-92
OVCAR-8 = test system: OVCAR-8
NCI-H460 = test system: NCI-H460
Malme-3M = test system: Malme-3M
KM-20L2 = test system: KM-20L2
DLD-1 = test system: DLD-1
SF-268 = test system: SF-268
CAKI-1 = test system: CAKI-1
UO-31 = test system: UO-31
SF-295 = test system: SF-295
U-251 = test system: U-251
HCT-15 = test system: HCT-15
786-0 = test system: 786-0
SR = test system: SR

For `CC(C)N(C(=O)C12CC3CC(CC(C3)C1)C2)C(C)C`, the GI50 (HCC 2998) was > 50 µM (inactive), the GI50 (M19-MEL) was > 50 µM (inactive) and the GI50 (EKVX) was > 50 µM (inactive). For the same molecule, the GI50 (OVCAR-4) was > 50 µM (inactive), the GI50 (M14) was > 50 µM (inactive) and the GI50 (HCT-116) was > 50 µM (inactive). For the same molecule, the GI50 (NCI-H226) was > 50 µM (inactive), the GI50 (TK-10) was > 50 µM (inactive) and the GI50 (SF-539) was > 50 µM (inactive). The GI50 (HOP-62) was > 50 µM (inactive), the GI50 (SW-620) was > 50 µM (inactive) and the GI50 (RPMI-8226) was > 50 µM (inactive). For the same molecule, the GI50 (NCI-H522) was > 50 µM (inactive), the GI50 (SNB-19) was > 50 µM (inactive) and the GI50 (HT-29) was > 50 µM (inactive). For the same molecule, the GI50 (DMS-273) was > 50 µM (inactive), the GI50 (ACHN) was > 50 µM (inactive) and the GI50 (K562) was > 50 µM (inactive). For the same molecule, the GI50 (UACC-257) was > 50 µM (inactive), the GI50 (A498) was > 50 µM (inactive) and the GI50 (MOLT-4) was > 50 µM (inactive). The GI50 (SK-MEL-2) was > 50 µM (inactive), the GI50 (OVCAR-3) was > 50 µM (inactive) and the GI50 (SK-OV-3) was > 50 µM (inactive). For the same molecule, the GI50 (SNB-75) was > 50 µM (inactive), the GI50 (KM12) was > 50 µM (inactive) and the GI50 (NCI-H23) was > 50 µM (inactive). For the same molecule, the GI50 (UACC-62) was > 50 µM (inactive), the GI50 (SNB-78) was > 50 µM (inactive) and the GI50 (A549) was > 50 µM (inactive). For the same molecule, the GI50 (HOP-18) was > 50 µM (inactive), the GI50 (CCRF-CEM) was > 50 µM (inactive) and the GI50 (SK-MEL-28) was > 50 µM (inactive). The GI50 (SK-MEL-5) was > 50 µM (inactive), the GI50 (SN12C) was > 50 µM (inactive) and the GI50 (LOX IMVI) was > 50 µM (inactive). For the same molecule, the GI50 (RXF 393) was > 50 µM (inactive), the GI50 (IGROV-1) was > 50 µM (inactive) and the GI50 (LXFL 529) was > 50 µM (inactive). The GI50 (OVCAR-5) was > 50 µM (inactive), the GI50 (COLO 205) was > 50 µM (inactive) and the GI50 (HL-60) was > 50 µM (inactive). The GI50 (DMS-114) was > 50 µM (inactive), the GI50 (HOP-92) was > 50 µM (inactive) and the GI50 (OVCAR-8) was > 50 µM (inactive). For the same molecule, the GI50 (NCI-H460) was > 50 µM (inactive), the GI50 (Malme-3M) was > 50 µM (inactive) and the GI50 (KM-20L2) was > 50 µM (inactive). For the same molecule, the GI50 (DLD-1) was > 50 µM (inactive), the GI50 (SF-268) was > 50 µM (inactive) and the GI50 (CAKI-1) was > 50 µM (inactive). The GI50 (UO-31) was > 50 µM (inactive), the GI50 (SF-295) was > 50 µM (inactive) and the GI50 (U-251) was > 50 µM (inactive). The GI50 (HCT-15) was over 50 µM and the GI50 (786-0) was > 50 µM (inactive).

In the case of `C=CCc1ccc(Oc2cc(CC=C)c3c(c2O)O[C@@H](CO)[C@H]3c2ccc(O)c(-c3cc(CC=C)ccc3O)c2)cc1`, the GI50 (HCC 2998) is reported as 45.9 µM (inactive), the GI50 (M19-MEL) is reported as 42.2 µM (inactive) and the GI50 (EKVX) is reported as 46.7 µM (inactive). The GI50 (OVCAR-4) was 54.7 µM (inactive), the GI50 (M14) was 47.6 µM (inactive) and the GI50 (HCT-116) was 61.9 µM (inactive). The GI50 (NCI-H226) was 67.1 µM (inactive), the GI50 (TK-10) was > 100 µM (inactive) and the GI50 (SF-539) was 40.9 µM (inactive). The GI50 (HOP-62) was 55.7 µM (inactive), the GI50 (SW-620) was 33.9 µM (inactive) and the GI50 (RPMI-8226) was 32.5 µM (inactive). For the same molecule, the GI50 (NCI-H522) was 18.3 µM (inactive), the GI50 (SNB-19) was 39.5 µM (inactive) and the GI50 (HT-29) was 23.4 µM (inactive). For the same molecule, the GI50 (DMS-273) was 42.9 µM (inactive), the GI50 (ACHN) was 67 µM (inactive) and the GI50 (K562) was 37.6 µM (inactive). The GI50 (UACC-257) was > 100 µM (inactive), the GI50 (A498) was 80 µM (inactive) and the GI50 (SK-MEL-2) was 24.3 µM (inactive). For the same molecule, the GI50 (OVCAR-3) was 33 µM (inactive), the GI50 (SK-OV-3) was > 100 µM (inactive) and the GI50 (SR) was 12.4 µM (inactive). The GI50 (SNB-75) was > 100 µM (inactive), the GI50 (KM12) was 35.3 µM (inactive) and the GI50 (NCI-H23) was 47.3 µM (inactive). The GI50 (UACC-62) was 30.1 µM (inactive), the GI50 (SNB-78) was 52 µM (inactive) and the GI50 (A549) was > 100 µM (inactive). For the same molecule, the GI50 (HOP-18) was > 100 µM (inactive), the GI50 (CCRF-CEM) was 20.5 µM (inactive) and the GI50 (SK-MEL-28) was 25.8 µM (inactive). The GI50 (SK-MEL-5) was 87.3 µM (inactive), the GI50 (SN12C) was 41.9 µM (inactive) and the GI50 (LOX IMVI) was 16.5 µM (inactive). For the same molecule, the GI50 (RXF 393) was 65.2 µM (inactive), the GI50 (IGROV-1) was 32.7 µM (inactive) and the GI50 (LXFL 529) was 30.8 µM (inactive). The GI50 (OVCAR-5) was > 100 µM (inactive), the GI50 (COLO 205) was 52 µM (inactive) and the GI50 (HL-60) was 23.8 µM (inactive). The GI50 (DMS-114) was 22.5 µM (inactive), the GI50 (HOP-92) was 52.2 µM (inactive) and the GI50 (OVCAR-8) was 41.7 µM (inactive). The GI50 (NCI-H460) was 24 µM (inactive), the GI50 (Malme-3M) was > 100 µM (inactive) and the GI50 (KM-20L2) was 32.9 µM (inactive). The GI50 (DLD-1) was 52.1 µM (inactive), the GI50 (SF-268) was 58.7 µM (inactive) and the GI50 (CAKI-1) was > 100 µM (inactive). The GI50 (UO-31) was 77.1 µM (inactive), the GI50 (SF-295) was 67.1 µM (inactive) and the GI50 (U-251) was 23.1 µM (inactive). The GI50 (HCT-15) was 30.2 µM and the GI50 (786-0) was 54 µM (inactive).

— ChEMBL document CHEMBL1201862, “PubChem BioAssay data set” (2004)
